Values quoted from earlier work, collected in patent US11439614B2, “Fish egg extracts, omega-3 lipid-based compositions and uses thereof” (BIOFLASH INC., priority 2017, dated 2022).

Tested on: ADHD symptoms

SMILES | Help for children with ADHD (150 mg for 12 weeks alone or 55 mg for 6 weeks with a conventional drug, 440 children) | Hyperactivity (200 mg daily for 6 months, 75 children with ADHD, vs conventional treatment (Starobat-Hermelin et al, 1997))
O=S(=O)([O-])[O-].[Zn+2] [zinc sulfate] | could significantly help children with this condition | 
[Mg+2] [magnesium] |  | decreased Hyperactivity
